The record followed here is patent US9938495B2, “Composition comprising cryopreservation medium and stem cells obtained by slow-freezing” (FERTIPRO N.V., priority 2013, dated 2018).

In assay [1] the test system is (MSC)-hTERT mesenchymal stem cells. The experiment in a line: Cryopreservation tests on (MSC)-hTERT mesenchymal stem cells with TGF-β treatment. The format is cell-based. The text has this:
It is noted that further cryopreservation tests on (MSC)-hTERT mesenchymal stem cells using the above-mentioned DMSO/FBS and PCM also show similar results for both cryopreservation media.

The test system of assay [2] is CT5.3-hTERT colon cancer-associated fibroblasts. In words: TGF-β-mediated growth inhibition in CT5.3-hTERT cells after cryopreservation (SRB assay, cell counter). The note with it: control group (routine culture, not cryopreserved); TGF-β 1 ng/ml for 1 week; n=3. Format: cell-based. Here is the method: Immortalized CT5.3-hTERT colon cancer-associated fibroblasts have been used to evaluate cellular function following cryopreservation with two different cryopreservation media: • 1) a 10:90 (% V/V) mixture of dimethylsulfoxide (DMSO) and fetal bovine serum (FBS), as known in the art; and • 2) a propylene glycol-based DMSO-free cryopreservation medium as described in Table 1 (hereafter referred to as “PCM”).
Briefly, early passage cells were cultured in routine culture medium (Dulbecco's Modified Eagle Medium (DMEM) containing 10% FBS, antibiotics and an antifungal product) at 37° C. in a humidified atmosphere with 5% CO2. Semi-confluent cells were harvested by trypsinization and cell concentration was assessed using the trypan blue exclusion method. […]
The cells of each group were treated with recombinant TGF-β (1 ng/ml) for 1 week. At the end of the experiment, cell concentration was measured using the sulforhodamine B (SRB) assay and an automated cell counter (trypan blue exclusion), respectively. […] Protein content was assessed by the bicinchoninic acid (BCA) test and concentrations were normalized, thus allowing for equal protein load for Western blot analysis. Expression of α-SMA was evaluated using a monoclonal HRP-coupled antibody, directed against this myofibroblast marker. […]

With TGF-β, the “effect of TGF-β on α-SMA expression” value in assay [1] was “not to alter α-SMA expression”. Further, the “inhibition of cell proliferation by TGF-β” value in assay [2] is listed as 79.84+/−4.43.
